Measurements as given in PMC10054553, “Development of the First ^18F-Labeled Radiohybrid-Based Minigastrin Derivative with High Target Affinity and Tumor Accumulation by Substitution of the Chelating Moiety” (Pharmaceutics, 2023).

How the values were obtained:
[1] = target: Human serum albumin (HSA) (Homo sapiens, UniProt P02768); test: Human serum albumin (HSA) binding, ultracentrifugation method; type: in vitro ADME; conditions: HSA 700 µM in PBS, 37 °C, 30 min, n = 6, corrected for unspecific binding
Chain of Human serum albumin (HSA) (P02768 25-609): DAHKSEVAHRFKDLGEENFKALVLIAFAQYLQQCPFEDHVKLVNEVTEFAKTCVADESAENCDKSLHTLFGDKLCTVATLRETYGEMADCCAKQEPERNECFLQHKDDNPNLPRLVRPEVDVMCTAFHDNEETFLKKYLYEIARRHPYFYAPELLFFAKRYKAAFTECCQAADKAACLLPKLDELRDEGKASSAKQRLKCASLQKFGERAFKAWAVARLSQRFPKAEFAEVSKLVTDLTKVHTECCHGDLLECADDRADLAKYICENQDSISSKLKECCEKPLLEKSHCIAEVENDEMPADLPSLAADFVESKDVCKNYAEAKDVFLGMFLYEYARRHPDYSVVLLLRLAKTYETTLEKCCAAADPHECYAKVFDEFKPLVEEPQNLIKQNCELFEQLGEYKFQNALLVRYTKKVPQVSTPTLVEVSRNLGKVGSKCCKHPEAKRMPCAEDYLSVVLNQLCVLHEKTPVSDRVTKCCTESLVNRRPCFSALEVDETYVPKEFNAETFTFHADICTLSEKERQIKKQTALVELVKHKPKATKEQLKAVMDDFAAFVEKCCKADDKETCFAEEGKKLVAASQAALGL
Protocol: Human serum albumin (HSA) binding was determined in analogy to a previously published ultracentrifugation method. Therefore, the peptides of interest were incubated in a solution of HSA (700 µM in phosphate-buffered saline) at 37 °C for 30 min (n = 6). All values were corrected for unspecific binding.

CCK-2R = target: T1, CCK-2R (Rattus norvegicus, UniProt P30553); test: CCK-2R-mediated internalization on AR42J cells; type: cell-based; conditions: for Internalization Values (%F11N) 6 h: relative to the reference DOTA-PP-F11N; for Internalization Values (%) 1 h / Internalization Values (%) 2 h / Internalization Values (%) 4 h / Internalization Values (%) 6 h: % of applied activity, 37 °C, 0.25 pmol/well, AR42J cells
T1 construct: CCK-2R-expressing rat pancreatic cancer cells AR42J; host or cells: AR42J (rat pancreatic cancer cells)
T1 sequence (P30553 1-452): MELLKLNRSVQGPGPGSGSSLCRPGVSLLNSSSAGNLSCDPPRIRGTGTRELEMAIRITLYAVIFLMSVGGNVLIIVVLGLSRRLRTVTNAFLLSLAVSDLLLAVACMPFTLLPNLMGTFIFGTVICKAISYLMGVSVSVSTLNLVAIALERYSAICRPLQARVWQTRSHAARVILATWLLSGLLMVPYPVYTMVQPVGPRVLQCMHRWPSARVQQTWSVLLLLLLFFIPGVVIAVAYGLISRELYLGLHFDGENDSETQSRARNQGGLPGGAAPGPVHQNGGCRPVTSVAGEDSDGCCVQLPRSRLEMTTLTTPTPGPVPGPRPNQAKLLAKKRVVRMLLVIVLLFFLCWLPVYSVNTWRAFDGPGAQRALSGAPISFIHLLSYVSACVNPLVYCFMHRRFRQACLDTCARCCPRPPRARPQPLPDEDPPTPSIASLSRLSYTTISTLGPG
Protocol: Figure 3 (a) CCK-2R-mediated internalization (0.25 pmol/well) measured on AR42J cells as percent (%) of applied activity (incubation at 37 °C for 1, 2, 4 and 6 h, RPMI 1640, 5 mm L-Gln, 5 mL non-essential amino acids (100×), 10% FCS + 5% BSA (v/v), 3.0 × 10^5 cells/mL/well). (b) CCK-2R-mediated internalization of [^177Lu]Lu-DOTA-rhCCK-16 (green), [^177Lu]Lu-(R)-DOTAGA-rhCCK-16 (orange), [^177Lu]Lu-DOTA-rhCCK-18 (red) and […] after incubation at 37 °C for 6 h as percent of reference (% of [^177Lu]Lu-DOTA-PP-F11N). * data taken from Holzleitner et al..
Cell Culture. CCK-2R-expressing rat pancreatic cancer cells AR42J (CLS GmbH, Eppelheim, Germany) were cultivated in monolayers in CELLSTAR® cell culture flasks acquired from Greiner Bio-One GmbH (Frickenhausen, Germany) at 37°C in a humidified atmosphere (5% CO2) using a HERAcell 150i-Incubator (Thermo Fisher Scientific Inc., Waltham, United States). The nutrient medium RPMI 1640 medium, supplemented with 5 mM L-Gln 5 mL non-essential amino acids (100×) and 10% FCS, was used. Furthermore, a Dulbecco’s PBS solution with 0.1% EDTA (v/v) was applied to detach the cells for cell passaging. The detached cells were counted using a Neubauer hemocytometer (Paul Marienfeld, Lauda-Königshofen, Germany). In addition, all operations under sterile conditions were accomplished using a MSC-Advantage safety workbench (Thermo Fisher Scientific Inc., Waltham, United States). […]
Internalization Studies. For the determination of the internalization kinetics of the various peptides, AR42J cells (3.0 × 10^5 cells/well) were seeded into polylysine-coated 24-well plates, adding 1 mL of nutrient medium. Afterwards, the cells were incubated for 24 ± 2 h at 37°C in a humidified atmosphere […]
On the day of the experiment, the medium was removed, and each well was washed with nutrient medium (300 μL). Afterwards 200 μL of nutrient medium, 25 μL of the 177Lu-labeled peptide (0.3 pmol, n = 6) and either 25 μL of nutrient medium for internalization studies ( n = 3) or 25 μL of [natLu]Lu-DOTA-PP-F11N (10 μmol) for competition studies ( n = 3) were added. Thereafter, the assay was incubated for various time points (1, 2, 4 and 6 h) at 37°C in a humidified atmosphere (5% CO2). After incubation, the cells were put on ice for at least 1 min to stop internalization kinetics and the supernatant was collected. Then, the cells were washed with an ice-cold nutrient medium (300 μL) and both fractions were unified. In order to displace the peptides from the cell membrane, 300 μL of an ice-cold glycine buffer (1 M, pH = 2.2) were added and the cells were incubated on ice for 15 min. Afterwards, the supernatant was collected, and the cells were washed with an ice-cold glycine buffer (300 μL, 1 M, pH = 2.2) while both fractions were unified. After lysis of the cells with NaOH (300 μL, 1 N) for 15 min, the respective wells were washed with NaOH (300 μL, 1 N) and both fractions were unified. The radioactivity of the supernatant, the acid wash and the lysed fractions were quantified using a γ-counter.
Lipophilicity Studies. Lipophilicity (depicted as octanol-phosphate-buffered saline solution (PBS, pH = 7.4) distribution coefficient, logD7.4) was determined by dissolving the 177Lu-labelled peptide (approx. 1 MBq) in a mixture (1/1, v/v) of n-octanol and PBS. The suspension was vortexed in a reaction vial (1.5 mL) for 3 min at room temperature and the vial was centrifuged at 9000 rpm for 5 min (Biofuge 15, Heraus Sepatech GmbH, Osterode, Germany). Amounts of 200 μL aliquots of both layers were measured separately in a γ-counter (Perkin Elmer, Waltham, MA, USA). The experiment was repeated […]
Stability Studies in Human Serum. The 177Lu- as well as 67Ga-labeled CCK-2R ligands (1 nmol, approx. 5 MBq) were incubated for 24 h in human serum (200 μL) at 37 °C. After incubation, ice-cold EtOH (125 μL) and MeCN (375 μL) were added and the suspension was centrifuged for 5 min at […]
5000 rpm. […]

| Structure (SMILES) | HSA Binding (%) [1] | HSA Binding (%) ([1]; listed as [^177Lu]Lu-DOTA-rhCCK-18) | Internalization Values (%F11N) 6 h (CCK-2R) | Internalization Values (%) 1 h (CCK-2R) | Internalization Values (%) 2 h (CCK-2R) | Internalization Values (%) 4 h (CCK-2R) | Internalization Values (%) 6 h (CCK-2R) |
| --- | --- | --- | --- | --- | --- | --- | --- |
| CCCC[C@H](NC(=O)[C@H](Cc1c[nH]c2ccccc12)NC(=O)CNC(=O)[C@H](Cc1ccc(O)cc1)NC(=O)[C@H](C)NC(=O)CC[C@@H](NC(=O)CC[C@@H](NC(=O)CC[C@@H](NC(=O)CC[C@@H](NC(=O)CC[C@@H](NC(=O)CC[C@@H](NC(=O)CC[C@@H](NC(=O)CC[C@@H](NC(=O)[C@@H](CNC(=O)c1ccc([Si](F)(C(C)(C)C)C(C)(C)C)cc1)NC(=O)CN1CCN(CC(=O)O)CCN(CC(=O)O)CCN(CC(=O)O)CC1)C(=O)O)C(=O)O)C(=O)O)C(=O)O)C(=O)O)C(=O)O)C(=O)O)C(=O)O)C(=O)N[C@@H](CC(=O)O)C(=O)N[C@@H](Cc1ccccc1)C(N)=O [[^19F]F-[^177Lu]Lu-DOTA-rhCCK-18] [metal not drawn] | 62.6% | 62.6% | 244 ± 7 %F11N | 15.4 ± 1.4% | 24.1 ± 1.6% | 41.6 ± 2.6% | 54.8 ± 1.5% |
| CCCC[C@H](NC(=O)[C@H](Cc1c[nH]c2ccccc12)NC(=O)CNC(=O)[C@H](Cc1ccc(O)cc1)NC(=O)[C@H](C)NC(=O)CC[C@@H](NC(=O)CC[C@@H](NC(=O)CC[C@@H](NC(=O)CC[C@@H](NC(=O)CC[C@@H](NC(=O)CC[C@@H](NC(=O)[C@@H](CNC(=O)c1ccc([Si](F)(C(C)(C)C)C(C)(C)C)cc1)NC(=O)CN1CCN(CC(=O)O)CCN(CC(=O)O)CCN(CC(=O)O)CC1)C(=O)O)C(=O)O)C(=O)O)C(=O)O)C(=O)O)C(=O)O)C(=O)N[C@@H](CC(=O)O)C(=O)N[C@@H](Cc1ccccc1)C(N)=O [[^177Lu]Lu-DOTA-rhCCK-16, metal not drawn] | 89.1% |  | 215 ± 7 %F11N | 19.5 ± 2.3% | 33.1 ± 1.7% | 43.9 ± 0.7% | 51.1 ± 1.7% |
